Data: US11739064B2, “HDAC inhibitors and therapeutic methods using the same” (THE BOARD OF TRUSTEES OF THE UNIVERSITY OF ILLINOIS, priority 2015, dated 2023)

Legend:
HDAC7 = target: T1, HDAC7 (Homo sapiens, UniProt Q8WUI4); test: HDAC isoform inhibition, HDAC7; type: biochemical
T1 sequence (Q8WUI4 1-952): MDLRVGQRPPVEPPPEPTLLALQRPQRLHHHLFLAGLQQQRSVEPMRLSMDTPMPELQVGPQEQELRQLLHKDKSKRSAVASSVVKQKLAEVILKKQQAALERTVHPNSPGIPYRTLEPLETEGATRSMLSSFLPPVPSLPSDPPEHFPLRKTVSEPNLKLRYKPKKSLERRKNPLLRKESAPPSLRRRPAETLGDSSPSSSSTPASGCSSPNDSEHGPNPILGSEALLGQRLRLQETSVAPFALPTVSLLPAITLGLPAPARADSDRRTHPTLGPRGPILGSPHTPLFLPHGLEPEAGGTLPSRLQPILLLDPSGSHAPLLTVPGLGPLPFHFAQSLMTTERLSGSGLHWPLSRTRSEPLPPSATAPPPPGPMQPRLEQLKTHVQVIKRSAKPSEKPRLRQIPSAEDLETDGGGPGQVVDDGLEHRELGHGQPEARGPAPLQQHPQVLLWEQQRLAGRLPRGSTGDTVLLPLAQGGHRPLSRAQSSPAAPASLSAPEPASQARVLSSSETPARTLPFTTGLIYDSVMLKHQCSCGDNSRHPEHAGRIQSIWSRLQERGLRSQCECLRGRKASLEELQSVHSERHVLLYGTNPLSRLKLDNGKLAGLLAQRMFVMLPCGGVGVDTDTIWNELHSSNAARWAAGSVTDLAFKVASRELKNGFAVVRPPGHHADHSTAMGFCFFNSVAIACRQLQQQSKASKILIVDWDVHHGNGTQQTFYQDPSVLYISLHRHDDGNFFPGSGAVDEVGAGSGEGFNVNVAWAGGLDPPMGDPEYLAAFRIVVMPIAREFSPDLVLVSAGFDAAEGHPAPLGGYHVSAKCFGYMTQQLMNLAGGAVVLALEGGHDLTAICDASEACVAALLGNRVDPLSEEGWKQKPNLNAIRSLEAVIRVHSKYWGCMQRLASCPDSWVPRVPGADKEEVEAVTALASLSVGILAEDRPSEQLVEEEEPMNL

HDAC9 = HDAC9 (Homo sapiens, UniProt Q9UKV0); test: HDAC isoform inhibition, HDAC9; type: biochemical
HDAC9, sequence (Q9UKV0 whole entry, canonical isoform): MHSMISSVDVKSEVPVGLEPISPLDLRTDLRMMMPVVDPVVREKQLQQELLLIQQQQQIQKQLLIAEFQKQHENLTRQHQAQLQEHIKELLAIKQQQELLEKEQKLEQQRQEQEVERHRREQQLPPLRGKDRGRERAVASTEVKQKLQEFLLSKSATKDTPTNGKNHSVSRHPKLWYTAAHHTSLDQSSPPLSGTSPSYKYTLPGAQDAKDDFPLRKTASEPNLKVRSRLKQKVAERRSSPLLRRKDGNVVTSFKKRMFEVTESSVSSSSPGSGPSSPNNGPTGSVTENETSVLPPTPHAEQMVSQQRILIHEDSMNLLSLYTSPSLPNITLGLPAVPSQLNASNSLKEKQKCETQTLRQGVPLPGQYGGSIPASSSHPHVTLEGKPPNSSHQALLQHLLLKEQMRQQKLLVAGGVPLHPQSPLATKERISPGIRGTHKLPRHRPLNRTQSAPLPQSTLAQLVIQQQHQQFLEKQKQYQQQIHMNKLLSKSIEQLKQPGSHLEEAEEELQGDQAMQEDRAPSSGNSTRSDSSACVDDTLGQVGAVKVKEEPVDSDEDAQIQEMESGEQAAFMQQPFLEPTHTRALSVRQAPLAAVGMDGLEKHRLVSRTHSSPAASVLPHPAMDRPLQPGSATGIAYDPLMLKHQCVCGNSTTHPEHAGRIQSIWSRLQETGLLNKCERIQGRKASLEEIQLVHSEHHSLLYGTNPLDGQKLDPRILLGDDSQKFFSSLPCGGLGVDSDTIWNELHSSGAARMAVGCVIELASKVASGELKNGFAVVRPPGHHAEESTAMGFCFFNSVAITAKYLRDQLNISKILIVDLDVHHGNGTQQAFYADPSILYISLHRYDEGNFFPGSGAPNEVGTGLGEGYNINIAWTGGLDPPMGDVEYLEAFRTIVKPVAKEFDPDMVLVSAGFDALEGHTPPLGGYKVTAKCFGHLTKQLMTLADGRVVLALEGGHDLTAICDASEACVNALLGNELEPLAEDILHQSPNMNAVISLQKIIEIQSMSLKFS

PANC1 cells = test: Scratch-wound cell migration assay; type: cell-based; design: key to Inhibition of cell migration, 24 h / Inhibition of cell migration, 48 h: Level of inhibition (high to low): +++, ++ or +; Level of inhibition (high to low): +++, ++ or +; Level of inhibition (high to low): +++, ++ or +; no inhibition: −
Protocol: FIG. 2 contains photographs of PANC1 cells treated with present compounds 9 and 6 taken 24 and 48 hours (post wounding) after a scratch was made through a confluent layer of cells; and
PANC1 Cell migration and effect on T and NK Cells. The effect of HDAC6 inhibition on cell migration and cellular cytotoxicity was evaluated. […] Thus, these HDAC6-selective inhibitors could function well to block metastasis. However, in contrast to the effect observed on cell migration, none of the compounds tested affected CD8+ T cell or natural killer (NK) cell-mediated cytotoxicity, despite the ability of the compounds to substantially increase the levels of acetyl-tubulin in these cell lines.

HDAC8 = target: T2, HDAC8 (Homo sapiens, UniProt Q9BY41); test: HDAC isoform inhibition, HDAC8; type: biochemical
T2 sequence (Q9BY41 1-377): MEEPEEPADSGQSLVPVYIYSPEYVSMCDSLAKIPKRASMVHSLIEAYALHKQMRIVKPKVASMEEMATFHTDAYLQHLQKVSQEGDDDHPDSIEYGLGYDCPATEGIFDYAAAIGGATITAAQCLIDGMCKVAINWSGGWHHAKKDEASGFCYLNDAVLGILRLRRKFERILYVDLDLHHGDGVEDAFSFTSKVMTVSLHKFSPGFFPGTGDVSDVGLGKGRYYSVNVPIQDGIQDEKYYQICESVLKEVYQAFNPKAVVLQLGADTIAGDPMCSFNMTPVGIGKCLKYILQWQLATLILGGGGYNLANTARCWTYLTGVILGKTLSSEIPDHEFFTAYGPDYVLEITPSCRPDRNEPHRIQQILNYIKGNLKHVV

L3.6pl = test: In vitro growth inhibition (GI), MTS cell proliferation assay (Table 5), L3.6pl; type: cell-based; details: Homo sapiens, 72 hours post-treatment
HDAC3/NcoR2 complex = HDAC3/NcoR2 complex (Homo sapiens, UniProt O15379); test: In vitro HDAC inhibition assay, HDAC3; type: biochemical
HDAC3/NcoR2 complex, sequence (O15379 whole entry): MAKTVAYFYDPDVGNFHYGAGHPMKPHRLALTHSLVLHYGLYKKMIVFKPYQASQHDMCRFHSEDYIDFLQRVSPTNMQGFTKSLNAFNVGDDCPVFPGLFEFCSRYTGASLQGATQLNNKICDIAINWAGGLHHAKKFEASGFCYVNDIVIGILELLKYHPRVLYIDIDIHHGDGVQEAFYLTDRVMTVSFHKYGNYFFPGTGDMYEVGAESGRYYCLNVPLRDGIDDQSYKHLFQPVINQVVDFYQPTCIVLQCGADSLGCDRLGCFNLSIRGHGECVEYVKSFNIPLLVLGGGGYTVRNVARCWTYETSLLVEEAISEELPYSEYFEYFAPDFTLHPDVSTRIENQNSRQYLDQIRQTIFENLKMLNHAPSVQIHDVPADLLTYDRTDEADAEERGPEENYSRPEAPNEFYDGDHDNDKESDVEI
HDAC3/NcoR2 complex, sequence (Q9Y618 395-489 partner limits assumed): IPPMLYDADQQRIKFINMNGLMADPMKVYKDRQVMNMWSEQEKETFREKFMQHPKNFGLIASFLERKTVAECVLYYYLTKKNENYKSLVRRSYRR

With `CC(C)(C)OC(=O)Nc1ccc(-c2cc(C(=O)NCCc3cc(C(=O)NO)no3)no2)cc1` [Compound 6, (4-{3-[2-(3-Hydroxycarbamoyl-isoxazol-5-yl)-ethylcarbamoyl]-isoxazol-5-yl}-phenyl)-carbamic acid tert-butyl ester] as the compound, how does the IC50 (HDAC7) read?
Its IC50 is 105 µM.

What about the “Selectivity for HDAC6 (fold) over HDAC7” value (HDAC7) of the same compound?
The value was 17500 fold.

And the IC50 (HDAC9)?
The IC50 was 12.8 µM.

And the “Selectivity for HDAC6 (fold) over HDAC9” value (HDAC9)?
Its value is 2130 fold.

What about the “Inhibition of cell migration, 24 h” value (PANC1 cells; PANC1, 24 h post wounding) of the same compound?
Its value is “+”.

And the “Inhibition of cell migration, 48 h” value (PANC1 cells; PANC1, 48 h post wounding)?
Its value is “−”.

What about the “Effect on PANC1 cell migration” value (PANC1 cells; compared to diluent-treated control cells) of the same compound?
The value was “partial effect”.

What about the IC50 (HDAC8) of the same compound?
Its IC50 is 0.81 µM.

What about the “Selectivity for HDAC6 (fold) over HDAC8” value (HDAC8) of the same compound?
The value was 135 fold.

And the GI50 (L3.6pl)?
The GI50 was greater than 50 µM.

What about the “Selectivity for HDAC6 (fold) over HDAC3” value (HDAC3/NcoR2 complex) of the same compound?
Its value is 3800 fold.

What about the IC50 (HDAC3/NcoR2 complex; NI = No inhibition at a concentration of 50 pM (footnote b), read-out: HDAC isoform IC50, HDAC3) of the same compound?
The IC50 was 22.8 µM.
